# In patent US20190002427A1, “STEREOISOMER OF FLOCOUMAFEN, COMPOSITION AND RODENTICIDE BAIT COMPRISING SAME, AND METHOD FOR CONTROLLING TARGET RODENT PESTS” (priority 2015, published 2019):
# What was measured:
# target rodent pests = experiment: Rodenticidal efficacy; type: in vivo; details: relative to the other configurational stereoisomers; in words, no data shown
# [1] = type: in vivo, Sprague-Dawley rats; details: relative to the other configurational stereoisomers; in words
# Experimental: About 0.525 g (±0.025 g) of rat liver is weighed out accurately and placed in a 50 mL polypropylene tube. 10 mL of acetone are added and the suspension is homogenized using an Ultra-Turrax® homogenizer/disperser for a time of about 30 seconds. The homogenizer/disperser shaft is rinsed with hot water and then twice with 20 mL of acetone in a polypropylene tube. The homogenate is centrifuged for 5 minutes at a centrifugation speed of 3000 rpm (revolutions per minute). The supernatant is collected and transferred into a test tube. The sample is subjected to evaporation under a stream of nitrogen (N2) at a temperature of 40° C. so as to form a dry extract.
# 1 mL of acetonitrile is added to the tube containing the dry extract so as to dissolve it. […]
# The configurational stereoisomers of flocoumafen are separated by high-pressure liquid chromatography using a LUX® Cellulose-4 chiral column (00F-4490-B0, Phenomenex, Le Pecq, France) as stationary phase and a mixture formed from acetonitrile (A) and water comprising 0.1% by volume of formic acid (B), with an A/B volume ratio of 92/8, as mobile phase with a flow rate of the liquid mobile phase in the chromatography column of 0.25 mL/minute. […] In particular, the MRM (“Multiple Reaction Monitoring”) transitions m/z 541.1→382.1 and m/z 541.1→161, corresponding to the flocoumafen signal, are detected. […]
compound,measurement,setting,value
"O=c1oc2ccccc2c(O)c1C1CC(c2ccc(OCc3ccc(C(F)(F)F)cc3)cc2)Cc2ccccc21 (single isomer, unassigned) [Enantiomer E4, flocoumafen]",Rodenticidal efficacy,target rodent pests,increased rodenticidal efficacy relative to the other configurational stereoisomers
same,Persistence in the liver,[1],more persistent in the liver of the target rodent pests
